Experimental findings from patent US7572809B2, “Isoquinoline aminopyrazole derivatives” (Hoffmann-La Roche Inc., priority 2005, dated 2009) are described below.

pIC50: −log10 of the molar value.

One test concerns HCT 116 cells. Kind of test: Viability assay in HCT 116 cells (CellTiter-Glo). Format: cell-based. Conditions: 120 h; HCT 116 human colon carcinoma cells, 5 days incubation. The procedure:
Viability Assay in HCT 116 Cells
A viability assay was performed using the CellTiter-Glo® Luminescent Cell Viability Assay (see Promega Corporation's Technical Bulletin No. 288, pp. 1-11 [revised February, 2004] which is hereby incorporated by reference in its entirety). This assay is a homogeneous method of determining the number of viable cells in culture based on quantitation of the ATP present, an indicator of metabolically active cells. The assay is designed for use with multiwell formats, making it ideal for automated high-throughput screening (HTS), cell proliferation and cytotoxicity assays. The homogeneous assay procedure involves adding a single reagent (containing luciferase, luciferan substrate, and buffer) directly to cells cultured in serum-supplemented medium. Cell washing, removal of medium and multiple pipetting steps are not required. The system detects as few as 15 cells/well in a 384-well format in 10 minutes after adding reagent and mixing.
The homogeneous “add-mix-measure” format results in cell lysis and generation of a luminescent signal proportional to the amount of ATP present. The amount of ATP is directly proportional to the number of cells present in culture. The above-referenced assay generates a “glow-type” luminescent signal, produced by the luciferase reaction, which has a half-life generally greater than five hours, depending on cell type and medium used. The extended half-life eliminates the need to use reagent injectors and provides flexibility for continuous or batch mode processing of multiple plates. The unique homogeneous format avoids errors that may be introduced by other ATP measurement methods that require multiple steps.
HCT 116 cells (human colon carcinoma, ATCC-No. CCl-247) were cultivated in RPMI 1640 medium with GlutaMAX™ I (cell culture media that contains L-Alanyl-L-Glutamine [a stabilized form/source of L-Glutamine] from Invitrogen, Cat-No. 61870-010), 5% Fetal Calf Serum (FCS, Sigma Cat-No. F4135 (FBS)); 100 Units/ml penicillin/100 μg/ml streptomycin (=Pen/Strep from Invitrogen Cat. No. 15140). For the assay the cells were seeded in 384 well plates, 1000 cells per well, in the same medium. The next day the test compounds were added in various concentrations ranging from 30 μM to 0.0015 μM (10 concentrations, 1:3 diluted). After 5 days the viability assay was performed according to the instructions of the manufacturer. In brief: the cell-plate was equilibrated to room temperature for approximately 30 minutes and then the CellTiter-Glo™ reagent (which contains luciferase, luciferan substrate, and buffer) was added. The contents were carefully mixed for 15 minutes to induce cell lysis. After 45 minutes the luminescent signal was measured in Victor 2, (scanning multiwell spectrophotometer, Wallac).
1st. Day: • Medium: RPMI 1640 with GlutaMAX™ I (Invitrogen, Cat-No. 61870), 5% FCS (Sigma Cat.-No. F4135), Pen/Strep (Invitrogen, Cat No. 15140). • HCT116 (ATCC-No. CCl-247): 1000 cells in 60 μl per well of 384 well plate (Greiner 781098, μClear-plate white) • After seeding incubate plates 24 h at 37° C., 5% CO2 2nd. Day: Induction (Treatment with Compounds, 10 Concentrations):
In order to achieve a final concentration of 30 μM as highest concentration 3.5 μl of 10 mM compound stock solution were added directly to 163 μl media. Then step e) of the dilution procedure described below, was followed.
In order to achieve the second highest to the lowest concentrations, a serial dilution with dilution steps of 1:3 was followed according to the procedure (a-e) as described here below: a) for the second highest concentration add 10 μl of 10 mM stock solution of compound to 20 μl dimethylsulfoxide (DMSO) b) dilute 8×1:3 (always 10 μl to 20 μl DMSO) in this DMSO dilution row (results in 9 wells with concentrations from 3333.3 μM to 0.51 μM) c) dilute each concentration 1:47.6 (3.5 μl compound dilution to 163 μl media) […]
In general terms: ATP-based viability assays read luminescence as a measure of living cells.
On to `COc1cccc2c(-c3ccccc3)nc(Nc3cc(C)[nH]n3)cc12` [Example 202, (5-Methoxy-1-phenyl-isoquinolin-3-yl)-(5-methyl-1H-pyrazol-3-yl)-amine], for which the pIC50 (in general, the IC50 on a negative log10 scale, so that one unit is a factor of ten) is 5.85.

`FC(F)(F)c1ccc(-c2nc(Nc3cc[nH]n3)cc3ccccc23)cc1` [Example 220, (1H-Pyrazol-3-yl)-[1-(4-trifluoromethyl-phenyl)-isoquinolin-3-yl]-amine] gave a pIC50 of 5.50.

Turning to `Cc1cc(Nc2cc3ccccc3c(-c3ccc(Cl)cc3)n2)n[nH]1` [Example 140, [1-(4-Chloro-phenyl)-isoquinolin-3-yl]-(5-methyl-1H-pyrazol-3-yl)-amine], the pIC50 was 5.58.

Molecule `Cc1cc(Nc2cc3ccccc3c(-c3csc4ccccc34)n2)n[nH]1` [Example 159, (1-Benzo[b]thiophen-3-yl-isoquinolin-3-yl)-(5-methyl-1H-pyrazol-3-yl)-amine] had a pIC50 of 5.72.

The molecule `Cc1cc(Nc2cc3ccccc3c(OCc3ccccc3)n2)n[nH]1` [Example 12, (1-Benzyloxy-isoquinolin-3-yl)-(5-methyl-1H-pyrazol-3-yl)-amine] had a pIC50 of 5.48.

`Cc1cc(Nc2cc3ccccc3c(Oc3ccccc3)n2)n[nH]1` [Example 11, (5-Methyl-1H-pyrazol-3-yl)-(1-phenoxy-isoquinolin-3-yl)-amine] gave a pIC50 of 5.74.

In turn, `COc1ccc2c(Nc3ccncc3)nc(Nc3cc(C)[nH]n3)cc2c1` [Example 288, 6-Methoxy-N^3-(5-methyl-1H-pyrazol-3-yl)-N^1-pyridin-4-yl-isoquinoline-1,3-diamine] showed a pIC50 of 5.89.

On to `Cc1cc(Nc2cc3ccccc3c(Nc3cccc(Cl)c3)n2)n[nH]1` [Example 294, N^1-(3-Chloro-phenyl)-N^3-(5-methyl-1H-pyrazol-3-yl)-isoquinoline-1,3-diamine], for which the pIC50 was 5.75.

In the case of `Cc1cc(Nc2cc3ccccc3c(-c3ccccc3)n2)n[nH]1` [Example 131, (5-Methyl-1H-pyrazol-3-yl)-(1-phenyl-isoquinolin-3-yl)-amine], the pIC50 is 5.41.

For `Cc1cc(Nc2cc3ccccc3c(Oc3cccc(C#N)c3)n2)n[nH]1` [Example 28, 3-[3-(5-Methyl-1H-pyrazol-3-ylamino)-isoquinolin-1-yloxy]-benzonitrile], the pIC50 is 6.00.

Turning to `Cc1cc(Nc2cc3ccccc3c(Sc3ccc(F)cc3)n2)n[nH]1` [Example 312, [1-(4-Fluoro-phenylsulfanyl)-isoquinolin-3-yl]-(5-methyl-1H-pyrazol-3-yl)-amine], the pIC50 is 5.42.

As to `COc1cc2cc(Nc3cc(C)[nH]n3)nc(OC3CCC3)c2cc1OC` [Example 125, (1-Cyclobutoxy-6,7-dimethoxy-isoquinolin-3-yl)-(5-methyl-1H-pyrazol-3-yl)-amine], the pIC50 was 6.29.

In turn, `COCCCNC(=O)c1ccc2c(-c3ccc(F)cc3F)nc(Nc3cc(C)[nH]n3)cc2c1` [Example 302, 1-(2,4-Difluoro-phenyl)-3-(5-methyl-1H-pyrazol-3-ylamino)-isoquinoline-6-carboxylic acid (3-methoxy-propyl)-amide] gave a pIC50 of 5.51.

A further test addresses T1, Aurora A kinase (Homo sapiens, UniProt O14965).
T1 sequence (O14965 1-403): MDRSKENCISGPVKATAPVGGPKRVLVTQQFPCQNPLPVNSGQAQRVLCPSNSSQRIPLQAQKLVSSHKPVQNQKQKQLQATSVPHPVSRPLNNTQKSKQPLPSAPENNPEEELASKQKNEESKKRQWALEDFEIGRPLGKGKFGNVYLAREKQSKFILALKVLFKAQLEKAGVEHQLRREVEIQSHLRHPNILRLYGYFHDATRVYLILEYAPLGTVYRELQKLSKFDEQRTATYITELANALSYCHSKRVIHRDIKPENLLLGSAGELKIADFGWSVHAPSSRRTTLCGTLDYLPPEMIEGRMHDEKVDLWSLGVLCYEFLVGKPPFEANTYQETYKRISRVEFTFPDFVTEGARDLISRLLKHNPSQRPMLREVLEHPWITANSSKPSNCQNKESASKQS
The experiment in a line: IC50 determination for inhibitors of Aurora A kinase (ELISA, GST-Histone H3 substrate). Conditions: mutant Aurora A kinase, 30 μM ATP, 40 minutes; read-out: IC50 Aurora A kinase inhibition. In kind it is biochemical. The procedure:
IC50 Determination for Inhibitors of Aurora A Kinase
Aurora A is a Serine Threonine Kinase Involved in Spindle Assembly and Chromosome Segregation.
The assay is a typically ELISA-type assay where substrate (GST-Histone H3) is coupled to the assay-plate and is phosphorylated by the kinase. Phosphorylation is detected by a mouse anti-Phosphopeptid mAb and an HRP-labeled anti-mouse pAb. The assay is validated for IC50-determination.
Kinase activities were measured by Enzyme-Linked Immunosorbent Assay (ELISA): Maxisorp 384-well plates (Nunc) were coated with recombinant fusion protein comprising residues 1-15 of HistoneH3 fused to the N-terminus of Glutathione-S-Transferase. Plates were then blocked with a solution of 1 mg/mL I-block (Tropix cat# T2015—highly purified form of casein) in phosphate-buffered saline. Kinase reactions were carried out in the wells of the ELISA plate by combining an appropriate amount of mutant Aurora A kinase with test compound and 30 μM ATP. The reaction buffer was […] Kinase Buffer (Cell Signaling cat # 9802) supplemented with 1 μg/mL I-block. Reactions were stopped after 40 minutes by addition of 25 mM EDTA (ethylenediaminetetraacetic acid). After washing, substrate phosphorylation was detected by addition of anti-phospho-Histone H3 (Ser 10) 6G3 mAb (Cell Signaling cat #9706) and sheep anti-mouse pAb-HRP (Amersham cat# NA931V), followed by colorimetric development with TMB (3,3′,5,5′-tetramethylbenzidine from Kirkegaard & Perry Laboratories). After readout of the absorbance, IC50 values were calculated using a non-linear curve fit (XLfit® software (ID Business Solution Ltd., Guilford, Surrey, UK)).
On the technique in general: In an ELISA, binding on a coated surface is turned into a signal by an enzyme label.
For `Cc1cc(Nc2cc3ccccc3c(Nc3cccnc3)n2)n[nH]1` [Example 292, N^3-(5-methyl-1H-pyrazol-3-yl)-N^1-pyridin-3-yl-isoquinoline-1,3-diamine], the pIC50 was 6.62.

Regarding `c1ccc2c(-c3ccsc3)nc(Nc3cc[nH]n3)cc2c1` [Example 241, (1H-Pyrazol-3-yl)-(1-thiophen-3-yl-isoquinolin-3-yl)-amine], the pIC50 is 6.02.

On to `COc1ccc(Nc2nc(Nc3cc[nH]n3)cc3ccccc23)cc1OC` [Example 284, N^1-(3,4-Dimethoxy-phenyl)-N^3-(1H-pyrazol-3-yl)-isoquinoline-1,3-diamine], for which the pIC50 is 6.59.

Consider `CCOCCOCCOc1nc(Nc2cc[nH]n2)cc2ccccc12` [Example 110, {1-[2-(2-Ethoxy-ethoxy)-ethoxy]-isoquinolin-3-yl}-(1H-pyrazol-3-yl)-amine], for which the pIC50 was 6.09.

On to `COc1ccc2c(-c3cnn(C)c3)nc(Nc3cc[nH]n3)cc2c1` [Example 135, [6-Methoxy-1-(1-methyl-1H-pyrazol-4-yl)-isoquinolin-3-yl]-(1H-pyrazol-3-yl)-amine], for which the pIC50 is 6.19.

Turning to `c1ccc2c(-c3ccncc3)nc(Nc3cc[nH]n3)cc2c1` [Example 248, (1H-Pyrazol-3-yl)-(1-pyridin-4-yl-isoquinolin-3-yl)-amine], the pIC50 was 5.46.

Consider `Cc1cc(Nc2cc3cc(OCCN4CCOCC4)ccc3c(-c3ccccc3)n2)n[nH]1` [Example 299, (5-Methyl-1H-pyrazol-3-yl)-[6-(2-morpholin-4-yl-ethoxy)-1-phenyl-isoquinolin-3-yl]-amine], for which the pIC50 is 6.53.

Consider `COc1ccc2c(Sc3cccc(F)c3)nc(Nc3cc(C)[nH]n3)cc2c1` [Example 311, [1-(3-Fluoro-phenylsulfanyl)-6-methoxy-isoquinolin-3-yl]-(5-methyl-1H-pyrazol-3-yl)-amine], for which the pIC50 was 6.68.

As to `Cc1cc(Nc2cc3ccccc3c(Oc3ccccc3Cl)n2)n[nH]1` [Example 23, [1-(2-Chloro-phenoxy)-isoquinolin-3-yl]-(5-methyl-1H-pyrazol-3-yl)-amine], the pIC50 is 5.78.

With `Cc1cc(Nc2cc3ccccc3c(Sc3ccccc3)n2)n[nH]1` [Example 305, (5-Methyl-1H-pyrazol-3-yl)-(1-phenylsulfanyl-isoquinolin-3-yl)-amine], the pIC50 was 6.30.

Take `CC(C)COc1nc(Nc2cc[nH]n2)cc2ccccc12` [Example 99, (1-Isobutoxy-isoquinolin-3-yl)-(1H-pyrazol-3-yl)-amine]: the pIC50 is 5.83.
